Assay results as given in patent US12435060B2, “Acylamino bridged heterocyclic compound, and composition and application thereof” (BEIJING SCITECH-MQ PHARMACEUTICALS LIMITED, priority 2019, dated 2025).

Tested on: HT29 cells
Assay: Inhibition of cell necrosis (CCK8 method), induced programmed necrosis of HT29 cells
Type: cell-based
Conditions: Homo sapiens, HT-29; rescue from necrosis induced by TNF-α 20 ng/mL, AT-406 1 μM, Z-VAD-FMK 20 μM; 16-20 hours; CCK-8, OD 450 nm
How it was run: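 Rescue from programmed necrosis was scored by CCK-8 absorbance at 450 nm after 16-20 h of TNF-α (20 ng/mL), AT-406 (1 μM) and Z-VAD-FMK (20 μM) at 37 °C, 5% CO2. HT29 cells had received compound 30 min earlier across nine 4-fold dilutions (top 25000 nM final). IC50 came from % inhibition relative to uninduced and induced-only wells.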

Structure (SMILES) | IC50 [µM]
O=C(Nc1cc(-c2cc(OCC3CCOCC3)ccc2C(F)(F)F)ccn1)c1nnc(CC2CCCCC2)[nH]1 [Example 304, 5-(cyclohexylmethyl)-N-(4-(5-((tetrahydro-2H-pyran-4-yl)methoxy)-2-(trifluoromethyl)phenyl)pyridin-2-yl)-4H-1,2,4-triazole-3-carboxamide] | ≤ 0.1
O=C(Nc1cc(-c2cc(OCCC3CCOCC3)ccc2C(F)(F)F)ccn1)c1nnc(Cc2ccccc2)[nH]1 [Example 305, 5-benzyl-N-(4-(5-(2-(tetrahydro-2H-pyran-4-yl)ethoxy)-2-(trifluoromethyl)phenyl)pyridin-2-yl)-4H-1,2,4-triazole-3-carboxamide] | ≤ 0.1
O=C(Nc1cc(-c2cc(OCCC3CCOCC3)ccc2C(F)(F)F)ccn1)c1nnc(Cc2ccccc2F)[nH]1 [Example 306, 5-(2-fluorobenzyl)-N-(4-(5-(2-(tetrahydro-2H-pyran-4-yl)ethoxy)-2-(trifluoromethyl)phenyl)pyridin-2-yl)-4H-1,2,4-triazole-3-carboxamide] | ≤ 0.1
O=C(Nc1cc(-c2cc(OCCC3CCOCC3)ccc2C(F)(F)F)ccn1)c1nnc(Cc2cccc(F)c2)[nH]1 [Example 307, 5-(3-fluorobenzyl)-N-(4-(5-(2-(tetrahydro-2H-pyran-4-yl)ethoxy)-2-(trifluoromethyl)phenyl)pyridin-2-yl)-4H-1,2,4-triazole-3-carboxamide] | ≤ 0.1
O=C(Nc1cc(-c2cc(OCCC3CCOCC3)ccc2C(F)(F)F)ccn1)c1nnc(Cc2ccc(F)cc2)[nH]1 [Example 308, 5-(4-fluorobenzyl)-N-(4-(5-(2-(tetrahydro-2H-pyran-4-yl)ethoxy)-2-(trifluoromethyl)phenyl)pyridin-2-yl)-4H-1,2,4-triazole-3-carboxamide] | ≤ 0.1
O=C(Nc1cc(-c2cc(OCCC3CCOCC3)ccc2C(F)(F)F)ccn1)c1nnc(CC2CCCC2)[nH]1 [Example 309, 5-(cyclopentylmethyl)-N-(4-(5-(2-(tetrahydro-2H-pyran-4-yl)ethoxy)-2-(trifluoromethyl)phenyl)pyridin-2-yl)-4H-1,2,4-triazole-3-carboxamide] | ≤ 0.1
O=C(Nc1cc(-c2cc(OCCC3CCOCC3)ccc2C(F)(F)F)ccn1)c1nnc(CC2CCCCC2)[nH]1 [Example 310, 5-(cyclohexylmethyl)-N-(4-(5-(2-(tetrahydro-2H-pyran-4-yl)ethoxy)-2-(trifluoromethyl)phenyl)pyridin-2-yl)-4H-1,2,4-triazole-3-carboxamide] | ≤ 0.1
C#Cc1ccc(OCCOC(C)(C)C)cc1-c1ccnc(NC(=O)c2nnc(Cc3ccccc3)[nH]2)c1 [Example 311, 5-benzyl-N-(4-(5-(2-(tert-butoxy)ethoxy)-2-ethynylphenyl)pyridin-2-yl)-4H-1,2,4-triazole-3-carboxamide] | 0.1 to 1
CC(C)(O)CCCOc1ccc(F)c(-c2ccnc(NC(=O)c3nnc(Cc4ccccc4)[nH]3)c2)c1 [Example 312, 5-benzyl-N-(4-(2-fluoro-5-((4-hydroxy-4-methylpentyl)oxy)phenyl)pyridin-2-yl)-4H-1,2,4-triazole-3-carboxamide] | 0.1 to 1
CC(C)(O)CCCOc1ccc(F)c(-c2ccnc(NC(=O)c3nnc(Cc4ccccc4F)[nH]3)c2)c1 [Example 313, 5-(2-fluorobenzyl)-N-(4-(2-fluoro-5-((4-hydroxy-4-methylpentyl)oxy)phenyl)pyridin-2-yl)-4H-1,2,4-triazole-3-carboxamide] | 0.1 to 1
CCC(O)(CC)CCCOc1ccc(F)c(-c2ccnc(NC(=O)c3nnc(Cc4ccccc4F)[nH]3)c2)c1 [Example 314, N-(4-(5-((4-ethyl-4-hydroxyhexyl)oxy)-2-fluorophenyl)pyridin-2-yl)-5-(2-fluorobenzyl)-4H-1,2,4-triazole-3-carboxamide] | 0.1 to 1
O=C(Nc1cc(-c2cc(OCC3CCOCC3)ccc2F)ccn1)c1nnc(Cc2ccccc2F)[nH]1 [Example 315, 5-(2-fluorobenzyl)-N-(4-(2-fluoro-5-((tetrahydro-2H-pyran-4-yl)methoxy)phenyl)pyridin-2-yl)-4H-1,2,4-triazole-3-carboxamide] | 0.1 to 1
